The record followed here is patent US5990170A, “Therapeutic use of mono and bicarboxylic acid amides active at the peripheral cannabinoid receptor” (Lifegroup S.p.A., priority 1994, dated 1999).

Like-named read-outs stand apart in the source and are kept apart here.

The nature of series [1]: Solubility in water and organic solvents. Particulars: for solubility in water: result in words.
Another series concerns RBL-2H3 cells. The series can be described thus: Inhibition of 3H-serotonin release induced by ADNP/DNP-HSA immunogenic stimulation in RBL-2H3 cells. Type of series: cell-based, rat. The note with it: for EC50: 15 minutes release period (Table 9); for inhibition at 100 µM: 100 μM (Table 8); for inhibition at 12.5 µM: RBL-2H3, read-out: 3H-serotonin net release inhibition (%), 12.5 μM; for inhibition at 30 µM: RBL-2H3, read-out: 3H-serotonin net release inhibition (%), 30 μM; for functional effect following receptor activation (serotonin release): result in words.

[2] abbreviates: dmso, organic solvent or mixture.
[3] abbreviates: ethanol, organic solvent or mixture.
[4] abbreviates: Rattus norvegicus, RBL-2H3, read-out: EC50, concentration inhibiting by 50% the net release of 3H serotonin, 0.2% DMSO.
The mark [5] stands for this setting: Rattus norvegicus, RBL-2H3, 0.25 h, read-out: 3H-serotonin net release (%).
Setting [6] is: Rattus norvegicus, RBL-2H3, read-out: 3H-serotonin release inhibition %, 1% DMSO.
[7] abbreviates: Rattus norvegicus, RBL-2H3, read-out: 3H-serotonin release inhibition %, 0.2% DMSO.
[8] abbreviates: Rattus norvegicus, RBL-2H3, read-out: EC50, concentration inhibiting by 50% the net release of 3H serotonin, 1% DMSO.
[9] abbreviates: read-out: ED50, inhibition of 3H-serotonin release, + anandamide (12.5 μM) (Table 5), 15 min.
[10] abbreviates: Rattus norvegicus, + WIN 55,212-2 (30 μm) (Table 6).
The mark [11] stands for this setting: Rattus norvegicus, - WIN (Table 6).
Setting [12] is: Rattus norvegicus, RBL-2H3, 0.25 h, read-out: ED50.

For `CCCCCCCCCCCCCCCC(=O)NCCOP(=O)(O)OCC(O)CO` (stereo not drawn) [Example 16, N-palmitoylethanolamine glycerophosphate], the solubility in series [1] (setting [2]) is greater than 10000 µg/mL; in series [1] (phosphate buffer, pH 7.4, aqueous buffer), greater than 1000 µg/mL. Also, in series [1], the solubility in water result is listed as “scarcely soluble”.
Regarding `CCCCCCCCCCCCCCCC(=O)NC[C@H](C)O` [Example 33, N-palmitoyl-[S(+)-1-amino-2-propanol]], the solubility in series [1] (setting [3]) was greater than 5000 µg/mL. For the same molecule, the solubility in water entry in series [1] is reported as “scarcely soluble”. Besides, the EC50 in the series on RBL-2H3 cells (setting [4]) is 4.7 µM.
For `O=C(/C=C/CCCCCCCCC(=O)NCCCCO)NCCCCO` [Example 17, N,N'-bis(4-hydroxybutyl)-trans-2-dodecendiamide], the solubility in series [1] (setting [2]) was greater than 5000 µg/mL. For the same molecule, the solubility in water result in series [1] is “scarcely soluble”.
In the case of `CCCCCCCCCCCCCCCC(=O)NCc1ccc(O)c(OC)c1` [Example 21, N-(4-hydroxy-3-methoxybenzyl)-palmitoylamide], the solubility in series [1] (setting [2]) and in series [1] (setting [3]) was greater than 10000 µg/mL each time. Also, in series [1], the solubility in water result is recorded as “scarcely soluble”. Besides, in the series on RBL-2H3 cells (setting [4]), the EC50 came out at 1.5 µM.
Regarding `CCCCCCCCCCCCCCCCCC(=O)NCc1ccc(O)c(OC)c1` [Example 39, N-(4-hydroxy-3-methoxybenzyl)-stearoylamide], the solubility in series [1] (setting [2]) and in series [1] (setting [3]) was greater than 10000 µg/mL each time. Further, the solubility in water entry in series [1] was “scarcely soluble”. Also, the activity at 50 µM in the series with RBL-2H3 cells (setting [5]) was found to be 68%. Moreover, in the series with RBL-2H3 cells (Rattus norvegicus, RBL-2H3, read-out: 3H-serotonin release inhibition %, 0.2% DMSO, 50 μM (Table 8)), the inhibition at 50 µM came out at 32%. Besides, the inhibition at 100 µM with RBL-2H3 cells (setting [6]) was determined as 67%.
Take `CCCCC/C=C\C/C=C\CCCCCCCC(=O)NCCO` [N-(2-hydroxyethyl)-linoleylamide, reference compound]: in the series on RBL-2H3 cells (setting [5]), the activity at 100 µM came out at 100%.
As to `CCCCCCCCCCCC(=O)N[C@@H](C)[C@H](O)c1ccccc1` [Example 8, N-lauroyl-[(1R,2S)-(-)-norephedrine]], the solubility in series [1] (setting [2]) and in series [1] (setting [3]) was greater than 10000 µg/mL each time. Moreover, the solubility in water entry in series [1] was “scarcely soluble”. Moreover, the EC50 in the series on RBL-2H3 cells (setting [4]) is 18 µM.
Turning to `CCCCCCCC/C=C\CCCCCCCC(=O)NCc1ccc(O)c(OC)c1` [Example 20, N-(4-hydroxy-3-methoxybenzyl)-oleoylamide], the solubility in series [1] (setting [2]) and in series [1] (setting [3]) was greater than 10000 µg/mL each time. Also, the solubility in water entry in series [1] was “scarcely soluble”. For the same molecule, the EC50 in the series with RBL-2H3 cells (setting [4]) stood at 6.3 µM.
For the molecule `CCCCCCCCCCCC(=O)NCCCO` [Example 12, N-(3-hydroxypropyl)-lauroylamide], the solubility in series [1] (setting [2]) and in series [1] (setting [3]) was greater than 10000 µg/mL each time. Besides, in series [1], the solubility in water result is “scarcely soluble”. Also, the inhibition at 100 µM in the series with RBL-2H3 cells (setting [7]) turned out to be 86%; with RBL-2H3 cells (setting [6]), 100%. For the same molecule, the EC50 is 44 µM in the series with RBL-2H3 cells (setting [4]) and 1.1 µM in the series on RBL-2H3 cells (setting [8]). Besides, the IC50 in the series with RBL-2H3 cells (setting [9]) came to 29 µM; with RBL-2H3 cells (read-out: ED50, inhibition of 3H-serotonin release, - anandamide (Table 5), 15 min), 1.1 µM.
Regarding `CCCCCCCCCCCCCCCC(=O)NCCOC` [Example 35, N-(2-methoxy-ethyl)-palmitoylamide], the solubility in series [1] (setting [3]) is greater than 10000 µg/mL. The solubility in water result in series [1] was “scarcely soluble”. The EC50 in the series on RBL-2H3 cells (setting [4]) was found to be 6.3 µM; in the series with RBL-2H3 cells (setting [8]), 9.2 µM.
Turning to `CCCCCCCCCCCC(=O)NCCCCO` [Example 18, N-(4-hydroxybutyl)-lauroylamide], the solubility in series [1] (setting [2]) and in series [1] (setting [3]) was greater than 10000 µg/mL each time. In series [1], the solubility in water entry is “scarcely soluble”. Further, the EC50 with RBL-2H3 cells (setting [4]) worked out at 63 µM.
As for `CCCCCCCCCCCCCCCC(=O)NCCc1ccc(O)cc1` [Example 34, N-(p-hydroxy-phenylethyl)-palmitoylamide], the solubility in series [1] (setting [2]) and in series [1] (setting [3]) was greater than 10000 µg/mL throughout. Moreover, the solubility in water entry in series [1] is reported as “scarcely soluble”. Moreover, the figures for the EC50 in the series with RBL-2H3 cells (setting [4]) and in the series with RBL-2H3 cells (setting [8]) were 13 µM and 0.36 µM, respectively.
For `CCCCCCCCCCCCCCCC(=O)NC(CO)CO` [Example 15, 2-(N-palmitoylamino)-1,3-propandiol], the solubility in series [1] (setting [2]) and in series [1] (setting [3]) was greater than 5000 µg/mL each time. Besides, in series [1], the solubility in water entry is “scarcely soluble”.
As to `CCCCCCCCCCCC(=O)N[C@H](C)[C@@H](O)c1ccccc1` [Example 6, N-lauroyl-[(1S,2R)-(+)-norephedrine]], the solubility in series [1] (setting [2]) and in series [1] (setting [3]) was greater than 10000 µg/mL in each case. Besides, the solubility in water entry in series [1] is given as “scarcely soluble”. In addition, the EC50 in the series with RBL-2H3 cells (setting [4]) came out at 30 µM; in the series with RBL-2H3 cells (setting [8]), 8.8 µM.
Consider `CCCCCCCCCCCCCCCC(=O)N[C@H](CO)Cc1ccccc1` [Example 9, N-palmitoyl-[(S)-(-)-2-amino-3-phenyl-1-propanol]], for which the solubility in series [1] (chloroform, organic solvent or mixture) is greater than 10000 µg/mL. For the same molecule, the solubility in water entry in series [1] is recorded as “scarcely soluble”. The activity at 100 µM with RBL-2H3 cells (Rattus norvegicus, RBL-2H3, 0.25 h, 100 μM, 0.1% DMSO and 0.1% ethanol (Table 3), read-out: 3H-serotonin net release (%)) was determined as 0%. Also, the inhibition at 100 µM with RBL-2H3 cells (setting [7]) turned out to be 100%. Besides, in the series on RBL-2H3 cells (co-incubation with anandamide, in words), the “effect of anandamide co-incubation on the ability to inhibit serotonin release” value was “reduces the ability”.
`CCCCCCCCCCCCCCCC(=O)NC[C@@H](C)O` [Example 32, N-palmitoyl-[R(-)-1-amino-2-propanol]]: the solubility in series [1] (setting [3]) is greater than 5000 µg/mL. In series [1], the solubility in water result was “scarcely soluble”. Moreover, the EC50 in the series on RBL-2H3 cells (setting [4]) was 0.73 µM.
Take `CCCCC/C=C\C/C=C\C/C=C\C/C=C\CCCC(=O)O` [arachidonic acid, reference compound]: the inhibition at 12.5 µM with RBL-2H3 cells (setting [10]) amounted to 59%; in the series on RBL-2H3 cells (setting [11]), 4%.
The like results for `NCCO` [ethanolamine, reference compound] were, in that order, 72% and 6%.
On to `Cc1c(C(=O)c2cccc3ccccc23)c2cccc3c2n1[C@H](CN1CCOCC1)CO3` [WIN 55,212-2, reference compound], for which the “3H-serotonin release inhibition (%)” value was determined as 8% in the series on RBL-2H3 cells (5 μm, (+) N-(2-hydroxyethyl)-palmitoleylamide (Example 19) (Table 7)); 8% in the series on RBL-2H3 cells (5 μm, (-) N-(2-hydroxyethyl)-palmitoleylamide (Table 7)); 10% in the series with RBL-2H3 cells (10 μm, (+) N-(2-hydroxyethyl)-palmitoleylamide (Example 19) (Table 7)); 12% in the series with RBL-2H3 cells (10 μm, (-) N-(2-hydroxyethyl)-palmitoleylamide (Table 7)); 24% in the series with RBL-2H3 cells (50 μm, (+) N-(2-hydroxyethyl)-palmitoleylamide (Example 19) (Table 7)); 76% in the series on RBL-2H3 cells (50 μm, (-) N-(2-hydroxyethyl)-palmitoleylamide (Table 7)). The “3H-serotonin release inhibition (%)” value was 30% with RBL-2H3 cells (70 μm, (+) N-(2-hydroxyethyl)-palmitoleylamide (Example 19) (Table 7)); 96% with RBL-2H3 cells (70 μm, (-) N-(2-hydroxyethyl)-palmitoleylamide (Table 7)); 56% in the series with RBL-2H3 cells (100 μm, (+) N-(2-hydroxyethyl)-palmitoleylamide (Example 19) (Table 7)); 98% with RBL-2H3 cells (100 μm, (-) N-(2-hydroxyethyl)-palmitoleylamide (Table 7)). Besides, the activity at 50 µM in the series with RBL-2H3 cells (setting [5]) was found to be 0%. Moreover, the IC50 was determined as 6.4 µM with RBL-2H3 cells (setting [12]) and 40 µM with RBL-2H3 cells (setting [9]). In addition, the inhibition at 30 µM in the series on RBL-2H3 cells (Rattus norvegicus, + anandamide (12.5 μM) (Table 4)) is 36%; with RBL-2H3 cells (Rattus norvegicus, - anandamide (Table 4)) it was 100%. Also, the “3H-serotonin net release inhibition (%)” value in the series on RBL-2H3 cells (WIN 55,212-2 30 μm alone (DNP.HSA line, + WIN) (Table 6)) is 69%. In addition, the “functional effect following receptor activation (serotonin release)” value in the series with RBL-2H3 cells was “able to inhibit, in a concentration-dependent way, RBL cells immunogenic activation”.
As to `O=C(/C=C/CCCCCCCCC(=O)N1CCOCC1)N1CCOCC1` [Example 38, 1,10-bis-morpholinylcarbonyl-trans-1-decene], the solubility in series [1] (setting [2]) and in series [1] (setting [3]) was greater than 10000 µg/mL in each case. In addition, the solubility in water result in series [1] is listed as “scarcely soluble”.
On to `CCCCCc1cc(O)c2c(c1)OC(C)(C)[C@@H]1CC=C(C)C[C@@H]21` [Δ8-THC, Δ8-tetrahydrocannabinol, reference compound], for which the activity at 25 µM in the series with RBL-2H3 cells (setting [5]) turned out to be 0%. Moreover, in the series with RBL-2H3 cells (setting [12]), the IC50 is 5 µM. For the same molecule, in the series with RBL-2H3 cells (Rattus norvegicus, RBL-2H3, read-out: 3H-serotonin net release inhibition (%), 25 μM, - anandamide (Table 4)), the inhibition at 25 µM turned out to be 100%. For the same molecule, the “functional effect following receptor activation (serotonin release)” value with RBL-2H3 cells was “able to inhibit, in a concentration-dependent way, RBL cells immunogenic activation”.
Take `CCCCCCCCCCCCCCCC(=O)N(C)CCO` [Example 14, N-methyl-N-(2-hydroxyethyl)-palmitoylamide]: the solubility in series [1] (setting [2]) was greater than 10000 µg/mL; in series [1] (n-octanol, organic solvent or mixture), greater than 10000 µg/mL. Besides, the solubility in water entry in series [1] was “scarcely soluble”.
